# Laboratory results: PubChem BioAssay AID1996
# Details: buffer; pH 7.4; 200.0 µM
row,Compound,solubility kinetic [µg/mL]
1,CCCN(CC(=O)Nc1ccccc1OC)C(=O)c1ccncc1,> 49.1
2,Cc1cc2c(cc1C)N(Cc1ccc(Cl)cc1)C1=NCCCN12,> 48.9
3,Cc1cccc(C)c1NC(=O)C(=O)NCCc1c[nH]c2ccccc12,1.3
4,O=C(O)C(Cc1ccc(O)cc1)N1C(=O)C2CCCCC2C1=O (stereo unspecified),> 47.6
5,Cc1ccc(N2CC(C(=O)N3CCOCC3)CC2=O)cc1Cl (stereo unspecified),> 48.4
6,Cc1ccc(S(=O)(=O)CCC(=O)Nc2sccc2C(N)=O)cc1,> 52.9
7,Cn1c(=O)n(C)c2cc(NC(=O)COc3ccc(F)cc3F)ccc21,47.2
8,CCOc1ccccc1NC(=O)CN1C(=O)C(C)SC(C)C1=O (stereo unspecified),34.5
9,CCc1c(C)nc2c(OC)cccc2c1Cl,7.7
10,Cc1cccc(N2CCN(C(=O)c3cccc(S(=O)(=O)N4CCCCC4)c3)CC2)c1C,2.9
11,CC(OC(=O)C1CC1)C(=O)Nc1ncc(Cl)cc1Cl (stereo unspecified),> 45.5
12,COc1ccc(CCNC(=O)c2cc(=O)[nH]c3ccccc23)cc1,1.9
13,CNS(=O)(=O)c1cccc(C(=O)OCC(=O)NC2CCCC(C)C2C)c1 (stereo unspecified),12.7
14,CN(C)c1nc(OCc2ccccc2)c2ncc(=O)[nH]c2n1,1.2
15,CCCN(CC(=O)Nc1cc(C)on1)CC(=O)Nc1ccc(F)c(F)c1F,44.1
16,Cc1ccc(CCN2CC(C(=O)NCCN(C)C)CC2=O)cc1 (stereo unspecified),> 47.6
17,O=Cc1c(-c2ccc(F)cc2)nc2ccccn12,2.5
18,Cc1ccc(S(=O)(=O)NCC(=O)OCC(=O)N2CC(=O)Nc3ccccc32)cc1,> 62.6
19,CC1CCCCN1C(=O)c1cc(-c2ccc3c(c2)OCO3)on1 (stereo unspecified),39.9
20,CC(=O)c1ccc(S(=O)(=O)NCc2cccnc2)cc1,> 43.6
21,COc1ccc(C(=O)Cn2c(=O)oc3ccc(C)cc32)cc1,< 0.6
22,Cc1cccc(C(=O)OC(C)CN2CCCC2)c1.Cl (stereo unspecified),> 42.6
23,COc1cc(=O)[nH]c(SC(C)C(=O)Nc2cc(C)on2)n1 (stereo unspecified),> 46.5

row,Compound,solubility kinetic [µg/mL]
1,CCC1CCCCN1Cc1c(O)ccc2c(=O)c(-c3ccccc3)coc12 (stereo unspecified),50.1
2,CCC(NC(=O)c1ccccc1NC(=O)C(C)(C)C)C(=O)N1CC(C)OC(C)C1 (stereo unspecified),> 60.5
3,COc1ccc(-n2c(C)ccc2C)c([N+](=O)[O-])c1,22.7
4,COc1cccc(-c2nc(N3CCCC3)c3ccccc3n2)c1O,< 0.2
5,CN(CCN1CCOCC1)Cc1nc(-c2ccccc2)no1,> 45.4
6,CC(C)[C@H](NC(=O)c1ccco1)C(=O)OCC(=O)c1ccc(Br)s1,> 62.1
7,CC1CCN(CCn2c(=S)[nH]c3cc4c(cc3c2=O)OCO4)CC1,29.4
8,CCc1cc(=O)[nH]c(SCC(=O)NCC2CCCO2)n1 (stereo unspecified),> 44.6
9,COc1ccc(S(=O)(=O)Nc2ccccc2C(N)=O)cc1OC,47.5
10,COC(=O)c1ccccc1N=Cc1c(O)[nH]c(=O)[nH]c1=O,8.4
11,CN(CCOc1ccccc1)CCOc1ccccc1,32.8
12,COC(=O)c1ccccc1NC(=S)NC(C)=O,> 37.8
13,CC1CCc2c(sc3[nH]c(=S)n(C)c(=O)c23)C1 (stereo unspecified),4.2
14,O=C(O)c1ccc(CNC(=O)c2ccc3c(c2)C(=O)N(Cc2cccnc2)C3=O)cc1,> 62.3
15,Cc1ccc(NC(=O)CCc2ccccc2)cc1S(=O)(=O)N1CCOCC1,56.7
16,CCN(c1ccccc1)c1nc2nonc2nc1NCCO,> 45
17,COc1ccc2c(CC(=O)OCC(=O)NC(N)=O)coc2c1,18.1
18,CCC(C)C(NC(=O)c1ccccc1NC(=O)c1ccccc1)C(=O)O (stereo unspecified),50.7
19,COc1cc2cc(C(=O)NCCc3ccccc3)[nH]c2cc1OC,1
20,CCn1cc(C(=O)NCc2ccccc2)c2ccccc21,8
21,O=C1NC(C(=O)O)=CC(c2ccc([N+](=O)[O-])cc2)N1 (stereo unspecified),> 39.5
22,CN(CCC#N)C(=O)CC(Cc1ccccc1)C1CCOC(C)(C)C1 (stereo unspecified),> 51.4
23,CCC(NC(C)C)C(O)c1ccc(O)c(O)c1.CS(=O)(=O)O (stereo unspecified),> 50.3
